ChEMBL document CHEMBL3507680, “University of Dundee, Gates Library screen for HepG2 cell viability”

Test: Human HepG2 cell viability assay in 384 well format
Assay type: toxicity, cell-based
Set-up: dose 125 nL, time 70.5 hour; cytotoxicity at 70.5 h: concentration not given beside the values
Conditions: HepG2 cells, read-out: Inhibition

CS(=O)(=O)NCCCn1ccc2ccccc21 showed a cytotoxicity at 70.5 h of -13.2%.
Compound CCS(=O)(=O)CC(=O)Nc1ccccc1N1CCc2ccccc21 has a cytotoxicity at 70.5 h of -13.2%.
CC(C)NC(=O)c1ccc(NC(=O)NC(C)c2ccccn2)cc1 (stereo not given) showed a cytotoxicity at 70.5 h of 19.1%.
CC(C)n1cnnc1CNC(=O)CCCOc1ccccc1Cl showed a cytotoxicity at 70.5 h of -6.43%.
Work on CC(C)n1cnnc1CNC(=O)CCCOc1ccccc1F yielded a cytotoxicity at 70.5 h of -11.9%.
In the case of Cc1nc(CN(C)C(=O)CNC(=O)c2ccc(C#N)cc2)cs1, the cytotoxicity at 70.5 h is reported as -8.22%.
Work on CN(C)Cc1nc(C(C)(C)NC(=O)c2cccc3ccccc23)no1 yielded a cytotoxicity at 70.5 h of -7.53%.
CC(C)(C)C(=O)NCC(=O)NCC1CCCS1 (stereo not given) showed a cytotoxicity at 70.5 h of -10.6%.
Fc1cccc(C(NCc2ncc[nH]2)c2ccccc2)c1 (stereo not given) gave a cytotoxicity at 70.5 h of -3.27%.
Work on CC(C)(C)CC(=O)NCC1CCCS1 (stereo not given) yielded a cytotoxicity at 70.5 h of -8.2%.
Work on Cc1ccc(OCC(=O)NC2(C#N)CCSCC2)cc1C yielded a cytotoxicity at 70.5 h of -10.6%.
For CN1CCN(c2ccc(NCc3ccsc3)cn2)CC1, the cytotoxicity at 70.5 h was -8.79%.
With CN1CCN(c2ccc(NCc3ccc([S+](C)[O-])cc3)cn2)CC1 (stereo not given) the cytotoxicity at 70.5 h was -0.416%.
CNC(=O)NCC(=O)Nc1ccccc1N1CCc2ccccc21 gave a cytotoxicity at 70.5 h of -3.43%.
N#Cc1cc(C(F)(F)F)ccc1NCC1CCS(=O)(=O)CC1 gave a cytotoxicity at 70.5 h of 16.6%.
Cc1nc(NS(=O)(=O)c2ccc(C)c(Br)c2)no1 showed a cytotoxicity at 70.5 h of -12.1%.
With COc1ccc(CN(C(=O)C2CCCO2)c2ccncc2)cc1 (stereo not given) the cytotoxicity at 70.5 h was -8.37%.
Work on N#Cc1cccc(CNCCC(=O)N2CCc3sccc3C2)c1 yielded a cytotoxicity at 70.5 h of -3.34%.
Compound CCc1nnsc1C(=O)NC(CC(C)C)C(=O)OC (stereo not given) has a cytotoxicity at 70.5 h of -7.11%.
For Cc1nc(-c2ccco2)ccc1C(=O)NCCCN1CCOCC1, the cytotoxicity at 70.5 h was -98.3%.
Cc1nnc(SCc2cccc(F)c2)n1CC(N)=O showed a cytotoxicity at 70.5 h of -125%.
In the case of COc1cccc(CSc2nnc(C)n2CC(N)=O)c1, the cytotoxicity at 70.5 h is reported as -98.4%.
For Cc1nc(CC(=O)NS(=O)(=O)c2cccc3cnccc23)cs1, the cytotoxicity at 70.5 h was -110%.
CCn1nc(C)c(C(=O)N2CCC(Nc3ccc(C)nn3)CC2)c1C showed a cytotoxicity at 70.5 h of -106%.
With O=C(OCC1CCN(c2ccccc2)C1)c1cscn1 (stereo not given) the cytotoxicity at 70.5 h was -103%.
Work on CCn1c(C)cc(C(=O)N2CCC(NC(=O)c3ccc(C)o3)CC2)c1C yielded a cytotoxicity at 70.5 h of -89.5%.
Work on Cc1ncsc1C(=O)OCC1CCN(c2ccccc2)C1 (stereo not given) yielded a cytotoxicity at 70.5 h of -97.5%.
For CS(=O)(=O)CCN1CCC(Nc2c(Cl)cccc2C#N)CC1, the cytotoxicity at 70.5 h was -94%.
CNS(=O)(=O)CC(=O)N1CCCc2cc(C(C)C)ccc21 showed a cytotoxicity at 70.5 h of -98.6%.
With Cc1ccc(C(=O)N2CCC3(CCCCC3)C2)c(=O)[nH]1 the cytotoxicity at 70.5 h was -105%.
Work on NC(=O)C1=NN2C(=NS(=O)(=O)c3ccccc32)N1 yielded a cytotoxicity at 70.5 h of -106%.
Compound Cn1cccc1C(=O)NC(C)(C(N)=O)c1cccc(C(F)(F)F)c1 (stereo not given) has a cytotoxicity at 70.5 h of -55.1%.
In the case of COc1ccc(CNC(=O)N(C)CC(C)(C)O)cc1OC, the cytotoxicity at 70.5 h is reported as -109%.
For O=C(Cc1csc(-c2ccccn2)n1)NCCCN1CCCCCC1=O, the cytotoxicity at 70.5 h was -76.6%.
For Cc1nc2n(n1)CC(NCc1nc3ccccc3o1)CC2 (stereo not given), the cytotoxicity at 70.5 h was 1.97%.
Compound COc1ncccc1CNC(=O)c1cc(F)cc(Br)c1 has a cytotoxicity at 70.5 h of -2.19%.
For CC(C)(C)C(Cn1ccnc1)NC(=O)NCc1ccco1 (stereo not given), the cytotoxicity at 70.5 h was -7.73%.
Work on Cc1cc(C)cc(N(CCC#N)C(=O)CN2CCCC2c2cccs2)c1 (stereo not given) yielded a cytotoxicity at 70.5 h of 25.9%.
COc1ccc(CNC(=O)NC2CCN(CC3CCCC3)CC2)cn1 showed a cytotoxicity at 70.5 h of -9.34%.
With COc1cc(CNC(=O)Nc2nncs2)ccc1O the cytotoxicity at 70.5 h was -1.98%.
With O=C1CCN(C(=O)C2(c3ccc(F)cc3)CCOCC2)CCN1 the cytotoxicity at 70.5 h was -8.05%.
CCc1noc(C)c1C(=O)NCc1c(C)nn(CCOC)c1C gave a cytotoxicity at 70.5 h of -4.73%.
Work on Cc1nc(CNC2CCc3ncnn3C2)oc1C (stereo not given) yielded a cytotoxicity at 70.5 h of -5.86%.
For Cc1nc2n(n1)CC(NCc1nc(C)c(C)o1)CC2 (stereo not given), the cytotoxicity at 70.5 h was -0.801%.
With CC(NC(=O)c1cccc(CN2CCN(C)CC2)c1)c1nccs1 (stereo not given) the cytotoxicity at 70.5 h was 1.61%.
Work on CC(Cc1ccccc1Br)NC(=O)CCS(C)(=O)=O (stereo not given) yielded a cytotoxicity at 70.5 h of 27.4%.
In the case of COC(=O)CCC(=O)NC(C)Cc1ccccc1Br (stereo not given), the cytotoxicity at 70.5 h is reported as -4.19%.
Compound CNS(=O)(=O)Cc1cccc(CNc2ccc(Cl)cn2)c1 has a cytotoxicity at 70.5 h of 4.33%.
For CN(Cc1cc(Br)cn1C)C(=O)c1ccon1, the cytotoxicity at 70.5 h was -2.35%.
COc1ccc(CNC(=O)N2CCCC(Nc3ccccc3)C2)cn1 (stereo not given) gave a cytotoxicity at 70.5 h of -7.17%.
In the case of Cc1ccc(S(=O)(=O)N2CC[C@@H](O)C2)c(F)c1, the cytotoxicity at 70.5 h is reported as -2.84%.
Cc1noc(NCc2cc(F)ccc2F)n1 showed a cytotoxicity at 70.5 h of -3.22%.
In the case of COCCOc1ccc(NC(=O)N(CC2CCOC2)C2CC2)cn1 (stereo not given), the cytotoxicity at 70.5 h is reported as -2.98%.
In the case of CCN(C)CC1CCN(S(=O)(=O)c2cc(C)c(F)cc2Cl)C1 (stereo not given), the cytotoxicity at 70.5 h is reported as -4.14%.
Work on c1cnc2c(c1)cc([C@@H]1CCCO1)n2CCN1CCCCC1 yielded a cytotoxicity at 70.5 h of 0.422%.
With c1cnc2[nH]c(C3CCCNC3)c(CN3CCCOCC3)c2c1 (stereo not given) the cytotoxicity at 70.5 h was -5.16%.
With CNC(=O)C1(CCCc2ccncc2)CCN1 (stereo not given) the cytotoxicity at 70.5 h was -9.29%.
With COc1ccc(CN(Cc2c[nH]cn2)CC2CCCO2)c(OC)c1 (stereo not given) the cytotoxicity at 70.5 h was -3.26%.
For COc1ccc(CN(Cc2cncn2C)CC2CCCO2)cc1 (stereo not given), the cytotoxicity at 70.5 h was -7.47%.
COc1cccc(CN2C[C@@H]3CC[C@@](O)(c4ccccn4)[C@@H]3C2)c1OC gave a cytotoxicity at 70.5 h of 12.8%.
